From BindingDB's records for doi:10.1016/j.bmc.2015.01.038 (Technical University of Denmark, 2015)

Experiment: Antagonist activity at lasB in Pseudomonas aeruginosa harboring lasB-gfp gene assessed as inhibition of […]-induced quorum sensing by green fluorescence protein reporter assay

Row | SMILES | IC50
1 | O=C(Cn1cc(C2CCCC2)nn1)N[C@H]1CCOC1=O | 610 µM
2 | O=C(Cn1cc(C2CC2)nn1)N[C@H]1CCOC1=O | 499 µM
3 | [N-]=[N+]=Nc1ccc(C(=O)N[C@H]2CCOC2=O)cc1 | 1100 µM
4 | O=C(Cn1cc(CSc2ccccc2)nn1)N[C@H]1CCOC1=O | 692 µM
5 | O=Cc1cccc(-n2cc(CCC(=O)N[C@H]3CCOC3=O)nn2)c1 | 381 µM
6 | CCCc1cn(CC(=O)N[C@H]2CCOC2=O)nn1 | 678 µM
7 | O=C(Cn1cc(C2CCCCC2)nn1)N[C@H]1CCOC1=O | 889 µM
8 | O=C(Cn1cc(-c2ccsc2)nn1)N[C@H]1CCOC1=O | 582 µM
9 | CCCCCCc1cn(CC(=O)N[C@H]2CCOC2=O)nn1 | 425 µM
